This series can be described thus: Release from reservoir devices submerged in PBS. In kind it is physicochemical. To be noted: physiologically-triggerable membrane. As for the experimental part:
The devices were constructed as follows. Two 1 cm diameter disks were punched out of a membrane sheet produced as described above. A 1 cm length of ⅜ inch OD (¼ inch ID) silicone tubing (currently used for catheters) was then cut and a membrane disk was glued to one side of the tube using a LockTite low viscosity quick drying adhesive. (1 inch=2.54 cm) After 30 minutes of drying (under light pressure), the membrane-backed tube was then filled with drug or indicator solution. Sodium fluorescein (100 mg/mL in saline) and bupivacaine (10 mg/mL in saline, as well as bupivacaine powder in a saturated saline solution with solid chunks of drug also added to give a larger drug reservoir for release) were tested. The top membrane was then attached using glue following the same technique as for the bottom membrane and set for 30 minutes under light pressure. […] For flux testing, the devices were submerged in 5 mL of PBS at a specific test temperature, with samples taken at predetermined intervals to track the release kinetics. For the microwave antenna devices, two 0.4 cm […] strips of aluminum foil were glued to the outside of the device, one at the top of the device and the other at the bottom of the device (with a 0.2 mm gap in the center) using the same adhesive.

Take `CCCCN1CCCCC1C(=O)Nc1c(C)cccc1C` (centres unmarked) [bupivacaine]: the “release of bupivacaine from device into PBS” value is “below the minimal effective dose” (37° C.) and “above the minimal effective dose” (50° C.).

The record behind these values is patent US20110212027A1, “RADIATIVE HEATING FOR DRUG DELIVERY AND OTHER APPLICATIONS” (priority 2008, published 2011).
